Experiments:
[1] = (§1) Evaluation of pharmacokinetic parameters for Metronidazole following oral administration of Metronidazole tablets; type: ADME, organism-based; set-up: dose 250 mg, dose 2000 mg, dose 500 mg, route oral; settings: human, in vivo, dosed compound id 31, dosed compound name METRONIDAZOLE, tissue Plasma
Homo sapiens = test: as §1; type: ADME, organism-based; set-up: dose 250 mg, dose 2000 mg, dose 500 mg, route oral; settings: in vivo, po, dosed compound id 31, dosed compound name METRONIDAZOLE, tissue Plasma

Cc1ncc([N+](=O)[O-])n1CCO [METRONIDAZOLE]
Tmax [1]: 1 to 2 h | CL_renal (Homo sapiens): 10 mL/min/1.73 m2

— ChEMBL document CHEMBL3832077, “DailyMed|setid=dc3d3905-2f08-4b71-b949-53f49fb3ea10 | METRONIDAZOLE- metronidazole tablet|Lake Erie Medical DBA Quality Care Products LLC”
